Earlier results in patent publication US20080014152A1, “INTRANASAL DELIVERY OF C[…] THE […] AND INTO THE BRAIN” (priority 2006, published 2008).

Key:
β2 adrenergic receptors = target: T1, β2 adrenergic receptors (Rattus norvegicus, UniProt P10608); details: Colangelo 1998; stimulation of β2 adrenergic receptors
T1 construct: host or cells: rat cerebral cortex (in vivo)

NGF mRNA = details: Follesa 1993; 10 mg/kg intraperitoneal, within 5 hours of administration
hippocampal cells = details: Zhu 2001
U937 cell = details: Izeboud 1999; U937 cells stimulated with LPS
astrocytes = details: Abdulla 2005; astrocytes treated with LPS
NGF protein = details: Zhu 1998; intraperitoneal
hippocampal cultures = details: Semkova 1996; in vitro exposure of hippocampal cultures
[1] = McIntyre 2005; infusions into the amygdala
[2] = Sleeper 2002; chronic systemic administration
[3] = Culmsee 1999
[4] = Culmsee 2004
[5] = Rami 2003; after transient global ischemia

T1 sequence (P10608 whole entry): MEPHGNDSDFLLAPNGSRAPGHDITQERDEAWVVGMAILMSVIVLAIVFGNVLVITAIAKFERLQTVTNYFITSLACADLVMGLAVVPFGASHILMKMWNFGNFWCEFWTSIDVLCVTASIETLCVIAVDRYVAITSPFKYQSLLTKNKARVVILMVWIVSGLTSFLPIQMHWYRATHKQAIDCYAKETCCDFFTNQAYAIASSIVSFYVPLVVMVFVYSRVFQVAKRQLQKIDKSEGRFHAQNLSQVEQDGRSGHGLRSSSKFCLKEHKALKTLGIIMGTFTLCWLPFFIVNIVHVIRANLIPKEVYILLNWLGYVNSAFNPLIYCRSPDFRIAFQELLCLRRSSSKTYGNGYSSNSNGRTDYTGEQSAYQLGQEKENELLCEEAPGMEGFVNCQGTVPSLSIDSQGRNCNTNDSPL

CC(C)(C)NCC(O)c1cc(Cl)c(N)c(Cl)c1 (stereo not drawn) [clenbuterol]
NGF biosynthesis in the rat cerebral cortex (β2 adrenergic receptors): increases NGF biosynthesis
increase in NGF mRNA in the cerebral cortex (NGF mRNA): 2-3 fold
TGF-β immunoreactivity (TGF-β; Zhu 2001, 0.5 mg/kg, as early as 3 hours after administration, elevated up to 2 days): increase TGF-β immunoreactivity
induction of TGF-β production in neurons (TGF-β; in vivo): 2-3 ×
neuroprotection of hippocampal cells after ischemia (hippocampal cells): provided neuroprotection
increase in bFGF mRNA in the cerebral cortex, hippocampus and cerebellum (bFGF mRNA; Follesa 1993, 10 mg/kg intraperitoneal, within 5 hours of administration): 2-3 fold
induction of bFGF production in neurons (bFGF mRNA; in vivo): 2-3 ×
IL-6 production (U937 cell): decreasing
IL-10 production (U937 cell): increase IL-10 production
TNF-α production (U937 cell): decreasing
protection from inflammation in astrocytes (astrocytes): provides protection from inflammation
elevation of NGF protein levels in the rat hippocampus (NGF protein): 33%
NGF content in the culture medium (hippocampal cultures): enhanced significantly
memory [1]: enhance memory
side effects, cardiac function [2]: negative alteration of cardiac function
cortical infarct volume ([3]; 0.01-0.5 mg/kg, rats, measured 7 days after permanent occlusion of the middle cerebral artery): reduced cortical infarct volume
blood pressure ([3]; dosages greater than 1 mg/kg): decrease in blood pressure
cerebroprotective effect ([3]; dosages greater than 1 mg/kg): no cerebroprotective effect
plasma glucose level ([3]; dosages greater than 1 mg/kg): increase in plasma glucose level
neuroprotective capacity in experimental models of stroke [4]: neuroprotective capacity
apoptosis in the rat hippocampus [5]: attenuates apoptosis
